Data as given in patent US10336707B2, “Heterocyclic derivatives modulating activity of certain protein kinases” (EUDENDRON S.R.L., priority 2014, dated 2019).

Columns and labels:
[1] = target: T1, BaF3 NPM-ALK C1156Y (Homo sapiens, UniProt Q9UM73, C1156Y, cells depend on it); experiment: Tritiated thymidine uptake cell proliferation assay, BaF3 NPM-ALK C1156Y; format: cell-based, murine; conditions: cell line BaF3 NPM-ALK C1156Y; read-out: IC50 of cellular proliferation, BaF3 NPM-ALK C1156Y
T1 construct: fused on or other part: P06748 (Nucleophosmin)
Procedure: (§1) Method: Tritiated Thymidine Uptake Cell Proliferation Assay
(§2) The following procedure was used with parent untransformed BaF3 cells, BaF3 cells transformed with the oncogenic fusion protein NPM/ALK, NPM/ALK positive SUDHL-1 cells, NPM/ALK positive SUPM2, ALK-negative HL60 cells, NPM/ALK positive KARPAS-299 cells. The parent untransformed BaF3 cells or Alk-negative HL60 cells are used as controls. Cells were seeded in U-bottomed 96-well plates at 10000 cells/well in a volume of 100 μl in supplemented medium. In the case of the parent untransformed BaF3 cells, the medium was supplemented with IL-3. Serial dilutions of inhibitors were added to the appropriate wells and volumes adjusted to 200 μl. Controls were treated with the equivalent volume of vehicle, DMSO, alone. Plates were incubated at 37° C. for 72 h. 3[H]-thymidine (1 μCi/well) was added for the last 16 h of incubation. Cells were harvested on to paper filters and 3[H]-thymidine incorporation was measured using a scintillation counter (1430 MicroBeta, Wallac, Turku, Finland). The 50% inhibitory concentration (IC50) was defined as the concentration of inhibitor, expressed in nanomolar units, that gave a 50% decrease in 3[H]-thymidine uptake compared with controls.
(§3) In Table 4 are reported the IC50 of cellular proliferation assays of example 3 versus ALK positive, mutated and negative cell lines.

[2] = target: T2, BaF3 NPM-ALK WT (Homo sapiens, UniProt Q9UM73); experiment: Tritiated thymidine uptake cell proliferation assay, BaF3 NPM-ALK WT; format: cell-based, murine; conditions: cell line BaF3 NPM-ALK WT; read-out: IC50 of cellular proliferation, BaF3 NPM-ALK WT
T2 construct: fused on or other part: P06748 (Nucleophosmin)
Procedure: as §1, §2, §3

T2 sequence (Q9UM73 whole entry, change not shown, the tested form may be a part): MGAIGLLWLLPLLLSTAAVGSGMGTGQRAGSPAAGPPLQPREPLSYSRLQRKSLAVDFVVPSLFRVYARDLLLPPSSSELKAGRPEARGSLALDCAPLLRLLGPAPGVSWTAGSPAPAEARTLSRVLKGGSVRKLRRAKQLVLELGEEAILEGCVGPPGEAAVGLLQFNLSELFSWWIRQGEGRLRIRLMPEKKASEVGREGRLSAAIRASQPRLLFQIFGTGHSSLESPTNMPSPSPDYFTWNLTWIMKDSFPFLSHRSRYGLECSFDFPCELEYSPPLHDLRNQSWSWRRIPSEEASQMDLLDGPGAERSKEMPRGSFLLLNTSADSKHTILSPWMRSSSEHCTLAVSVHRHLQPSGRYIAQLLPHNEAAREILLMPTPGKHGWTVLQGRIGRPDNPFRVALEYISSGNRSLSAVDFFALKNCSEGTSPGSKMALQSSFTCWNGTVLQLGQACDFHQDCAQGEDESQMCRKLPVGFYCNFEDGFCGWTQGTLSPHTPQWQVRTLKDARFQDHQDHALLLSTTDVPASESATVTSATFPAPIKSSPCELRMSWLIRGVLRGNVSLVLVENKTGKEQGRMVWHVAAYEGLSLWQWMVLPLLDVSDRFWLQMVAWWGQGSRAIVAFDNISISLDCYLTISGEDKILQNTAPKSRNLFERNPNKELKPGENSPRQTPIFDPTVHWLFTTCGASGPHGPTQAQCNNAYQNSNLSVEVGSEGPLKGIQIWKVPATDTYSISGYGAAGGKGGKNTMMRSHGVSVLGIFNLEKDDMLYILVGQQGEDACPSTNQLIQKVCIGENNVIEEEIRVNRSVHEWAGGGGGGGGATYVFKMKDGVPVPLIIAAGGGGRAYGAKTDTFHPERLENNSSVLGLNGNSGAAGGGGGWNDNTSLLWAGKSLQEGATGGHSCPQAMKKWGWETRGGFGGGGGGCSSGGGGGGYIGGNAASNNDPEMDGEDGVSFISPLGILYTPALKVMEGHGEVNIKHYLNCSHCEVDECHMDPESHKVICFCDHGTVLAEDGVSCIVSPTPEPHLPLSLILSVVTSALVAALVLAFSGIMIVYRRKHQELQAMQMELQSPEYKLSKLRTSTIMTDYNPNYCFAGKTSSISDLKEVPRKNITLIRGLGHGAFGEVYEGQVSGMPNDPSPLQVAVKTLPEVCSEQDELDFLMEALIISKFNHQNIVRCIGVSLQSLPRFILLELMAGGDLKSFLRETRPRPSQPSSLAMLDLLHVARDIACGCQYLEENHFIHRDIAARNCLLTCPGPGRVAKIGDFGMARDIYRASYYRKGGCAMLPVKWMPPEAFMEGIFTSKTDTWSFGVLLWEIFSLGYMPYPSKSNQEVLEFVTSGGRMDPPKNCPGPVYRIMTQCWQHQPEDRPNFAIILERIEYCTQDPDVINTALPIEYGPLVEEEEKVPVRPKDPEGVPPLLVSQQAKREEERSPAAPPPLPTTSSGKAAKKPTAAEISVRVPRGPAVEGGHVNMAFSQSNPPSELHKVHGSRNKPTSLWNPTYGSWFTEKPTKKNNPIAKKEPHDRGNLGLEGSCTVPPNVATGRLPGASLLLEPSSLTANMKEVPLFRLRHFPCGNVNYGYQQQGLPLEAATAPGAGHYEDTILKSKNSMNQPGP
T1 sequence (Q9UM73 whole entry C1156Y, the tested form may be a part): as the sequence (Q9UM73 whole entry, change not shown, the tested form may be a part) above, with C1156Y counted along it

Question: How did the GI50 [1] turn out when `CN1CCN(c2ccc(C(=O)Nc3n[nH]c4cc(-c5ccc(O)cc5)c(Cc5cc(F)cc(F)c5)cc34)c(NC3CCOCC3)c2)CC1` [Example 3, N-[5-[(3,5-difluorophenyl)methyl]-6-(4-hydroxyphenyl)-1H-indazol-3-yl]-4-(4-methylpiperazin-1-yl)-2-(tetrahydropyran-4-ylamino)benzamide] was run?
Answer: Its GI50 is 34 nM.

Question: And the GI50 [2]?
Answer: The GI50 was 18 nM.
